Patent publication US6365597B1, “4-aza steroids” (Aventis Pharmaceuticals Inc., priority 1996, dated 2002)

melting point: 237.5 to 238.5 °C
SMILES: CC12CCC3C(CC[C@H]4NC(=O)CCC34C)C1CC[C@@H]2OC1CC1 (stereo partly drawn) [MDL 103,432, 17β-Cyclopropyloxy-4-aza-5α-androstan-3-one]
